Like-named read-outs stand apart in the source and are kept apart here. Each block holds one compound with its values, some of them ahead of it.
Assays:
OATP1B1 and OATP1B3 [1] = assay: Inhibition of [3H]pitavastatin accumulation in human SCH; format: in vitro ADME; settings: for Co-Incubation R / Pre+Co-Incubation R: Hepatocytes, substrate pitavastatin, R-value model; for accumulation of [3H]pitavastatin after inhibitor pre-incubation: human SCH, washing
OATP1B3 [2] = molecular target: T1, OATP1B3 (Homo sapiens, UniProt Q9NPD5); assay: Inhibition of [3H]CCK-8 accumulation in human SCH; format: in vitro ADME; settings: mean ± SE
T1 sequence (Q9NPD5 1-702): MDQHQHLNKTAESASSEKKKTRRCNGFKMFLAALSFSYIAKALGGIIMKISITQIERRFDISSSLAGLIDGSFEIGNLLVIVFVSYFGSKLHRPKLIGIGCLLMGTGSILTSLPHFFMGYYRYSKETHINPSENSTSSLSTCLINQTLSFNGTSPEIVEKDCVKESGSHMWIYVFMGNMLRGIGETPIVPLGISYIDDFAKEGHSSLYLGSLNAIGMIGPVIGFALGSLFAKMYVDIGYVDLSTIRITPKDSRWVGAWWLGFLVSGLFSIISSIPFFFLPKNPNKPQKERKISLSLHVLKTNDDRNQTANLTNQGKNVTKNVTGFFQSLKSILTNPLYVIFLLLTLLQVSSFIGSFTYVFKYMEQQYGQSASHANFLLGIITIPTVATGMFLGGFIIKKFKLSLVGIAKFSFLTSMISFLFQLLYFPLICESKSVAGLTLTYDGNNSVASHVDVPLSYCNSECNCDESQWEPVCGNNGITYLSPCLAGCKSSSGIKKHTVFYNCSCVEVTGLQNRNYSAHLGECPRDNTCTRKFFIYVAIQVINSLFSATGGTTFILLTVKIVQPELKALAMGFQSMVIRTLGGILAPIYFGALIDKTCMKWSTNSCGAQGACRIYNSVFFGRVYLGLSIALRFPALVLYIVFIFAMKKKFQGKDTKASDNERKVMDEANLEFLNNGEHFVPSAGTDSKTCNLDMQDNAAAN

OATP1B1 and OATP1B3 [3] = settings: for Co-Incubation R / Pre+Co-Incubation R: Hepatocytes, substrate rosuvastatin, R-value model; for accumulation of [3H]rosuvastatin after inhibitor pre-incubation: washing
OATP1B1 and OATP1B3 [4] = settings: both cell lines and human SCH; vs US FDA cut-off 1.1
OATP1B1 [5] = settings: OATP1B1-expressing cell line, substrate E217βG; ref Pahwa et al., 2017; cited from earlier work
OATP1B3 [6] = molecular target: T1, OATP1B3; settings: OATP1B3-expressing cell line, substrate E217βG; ref Pahwa et al., 2017; cited from earlier work
[7] = Estimated maximum total plasma concentration at the inlet to the liver; settings: calculated by Eq. 3 from literature parameters (Supplement Table S2)
OATP1B1 and OATP1B3 [8] = settings: transporter-expressing cell lines; ref Farasyn et al., 2019; cited from earlier work
OATP1B1 [9] = settings: OATP1B1-expressing cell line, substrate rosuvastatin; ref Farasyn et al., 2019; cited from earlier work
OATP1B1 [10] = settings: read-out: Michaelis constant (Km) for OATP1B1, cited from earlier work
[11] = tested on: cynomolgus monkey hepatocytes; settings: ref Ufuk et al., 2018; cited from earlier work
OATP1B3 [12] = settings: cited from earlier work
human hepatocytes = settings: suspension of human hepatocytes, with vs without rifampicin; ref Bi et al., 2013; cited from earlier work
[13] = tested on: OATP1B1, NTCP, and OATP1B3; settings: ref Ho et al., 2006; Kitamura et al., 2008; cited from earlier work
[14] = human hepatocytes, inhibitor 100 μM co-incubation, mean ± SE

Compound: O=C1OC(c2ccc(O)c(S(=O)(=O)O)c2)(c2ccc(O)c(S(=O)(=O)O)c2)c2c(Br)c(Br)c(Br)c(Br)c21 [BSP, bromosulfophthalein]
accumulation of [3H]pitavastatin, co-incubation (OATP1B1 and OATP1B3 [1]; [14]): 0.44 ± 0.05 fold of control
accumulation of [3H]CCK-8, co-incubation (OATP1B3 [2]; human hepatocytes, inhibitor 100 μM co-incubation): 0.10 ± 0.01 fold of control
accumulation of [3H]rosuvastatin, co-incubation (OATP1B1 and OATP1B3 [3]; [14]): 0.20 ± 0.09 fold of control
inhibition of rosuvastatin uptake, co-incubation (OATP1B1 and OATP1B3 [3]; human hepatocytes, inhibitor 100 μM co-incubation, range 77–92%): ~ 84%

Compound: Cc1nc(Nc2ncc(C(=O)Nc3c(C)cccc3Cl)s2)cc(N2CCN(CCO)CC2)n1 [Dasatinib, dasatinib]
R-values under pre+co-incubation conditions (OATP1B1 and OATP1B3 [4]): > 1.1
Co-Incubation R (OATP1B1 [5]): 1.07 (1.04–1.09)
Pre+Co-Incubation R (OATP1B1 [5]): 1.13 (1.09–1.20)
Co-Incubation R (OATP1B3 [6]): 1.05 (1.05–1.09)
Pre+Co-Incubation R (OATP1B3 [6]): 1.11 (1.09–1.22)
Co-Incubation R (OATP1B1 and OATP1B3 [3]): 1.09 (1.05–1.14)
Pre+Co-Incubation R (OATP1B1 and OATP1B3 [3]): 1.27 (1.15–1.51)

Co-Incubation R (OATP1B1 and OATP1B3 [1]): 1.01 (1.01–1.02)
Pre+Co-Incubation R (OATP1B1 and OATP1B3 [1]): 1.09 (1.08–1.13)
maximum total plasma concentration at the inlet to the liver (Iin,max,plasma) [7]: 0.17 µM
Pre+Co-Incubation R (OATP1B1 and OATP1B3 [3]): 1.07 (1.05–1.11)
Compound: CO[C@H]1C[C@@H]2CC[C@@H](C)[C@@](O)(O2)C(=O)C(=O)N2CCCC[C@H]2C(=O)O[C@H]([C@H](C)C[C@@H]2CC[C@@H](OCCO)[C@H](OC)C2)CC(=O)[C@H](C)/C=C(\C)[C@@H](O)[C@@H](OC)C(=O)[C@H](C)C[C@H](C)/C=C/C=C/C=C/1C [EVR, everolimus]
accumulation of [3H]pitavastatin after inhibitor pre-incubation (OATP1B1 and OATP1B3 [1]; 1 h pre-incubation at 0.5 μM, model estimate ± SE): 0.78±0.06 fold vs. CTL
R values from cell lines, pre+co-incubation (OATP1B1 and OATP1B3 [8]): 1.23
accumulation of [3H]rosuvastatin after inhibitor pre-incubation (OATP1B1 and OATP1B3 [3]; human SCH, 1 h pre-incubation at 0.2 μM, model estimate ± SE): 0.8 ± 0.07 fold of CTL
accumulation of [3H]rosuvastatin after inhibitor pre-incubation (OATP1B1 and OATP1B3 [3]; human SCH, 1 h pre-incubation at 0.8 μM, model estimate ± SE): 0.59 ± 0.07 fold of CTL

Co-Incubation R (OATP1B1 and OATP1B3 [1]): 1.00 (1.00–1.01)
Pre+Co-Incubation R (OATP1B1 and OATP1B3 [1]): 1.00 (1.00–1.01)
maximum total plasma concentration at the inlet to the liver (Iin,max,plasma) [7]: 0.03 µM
R-values under pre+co-incubation conditions (OATP1B1 and OATP1B3 [4]): < 1.1
Co-Incubation R (OATP1B1 and OATP1B3 [3]): 1.00 (1.00–1.00)
Pre+Co-Incubation R (OATP1B1 and OATP1B3 [3]): 1.00 (1.00–1.00)
Compound: CO[C@H]1C[C@@H]2CC[C@@H](C)[C@@](O)(O2)C(=O)C(=O)N2CCCC[C@H]2C(=O)O[C@H]([C@H](C)C[C@@H]2CC[C@@H](O)[C@H](OC)C2)CC(=O)[C@H](C)/C=C(\C)[C@@H](O)[C@@H](OC)C(=O)[C@H](C)C[C@H](C)/C=C/C=C/C=C/1C [SIR, sirolimus]
accumulation of [3H]pitavastatin after inhibitor pre-incubation (OATP1B1 and OATP1B3 [1]; 1 h pre-incubation at 0.6 μM): did not affect
Co-Incubation R (OATP1B1 [9]): 1.00 (1.00–1.03)
accumulation of [3H]rosuvastatin after inhibitor pre-incubation (OATP1B1 and OATP1B3 [3]; human SCH, 1 h pre-incubation at 0.6 μM): 0.63 ± 0.08 fold vs. CTL

Compound: O=C(O)C[C@H](O)C[C@H](O)/C=C/c1c(C2CC2)nc2ccccc2c1-c1ccc(F)cc1 [pitavastatin]
Km (OATP1B1 [10]; ref Hirano et al., 2004): 3 µM
uptake clearance attributed to passive diffusion [11]: 20%
Km (OATP1B3 [12]; read-out: Michaelis constant (Km) for OATP1B3, ref Hirano et al., 2004): 3 µM

Compound: CO[C@H]1/C=C/O[C@@]2(C)Oc3c(C)c(O)c4c(O)c(c(/C=N/N5CCN(C)CC5)c(O)c4c3C2=O)NC(=O)/C(C)=C\C=C\[C@H](C)[C@H](O)[C@@H](C)[C@@H](O)[C@@H](C)[C@H](OC(C)=O)[C@@H]1C [rifampicin]
accumulation of [3H]CCK-8, pre+co-incubation (OATP1B3 [2]; human SCH, inhibitor 50 μM, 1 h pre-incubation then co-incubation): 0.18 ±0.12 fold of control
accumulation of [3H]rosuvastatin, pre+co-incubation (OATP1B1 and OATP1B3 [3]; human SCH, inhibitor 50 μM, 1 h pre-incubation then co-incubation, mean ± SE): 0.45 ± 0.15 fold of control

Compound: CC(C)c1nc(N(C)S(C)(=O)=O)nc(-c2ccc(F)cc2)c1/C=C/[C@@H](O)C[C@@H](O)CC(=O)O [rosuvastatin]
Km (OATP1B1 [10]; ref Kitamura et al., 2008): 0.8 µM
share of total hepatic uptake clearance due to active transport processes (human hepatocytes): approximately 90%
uptake clearance attributed to passive diffusion [11]: 4%
contribution of NTCP to active uptake into human hepatocytes [13]: ~35%
contribution of OATP1B1 to active uptake into human hepatocytes [13]: ~ 50%
contribution of OATP1B3 to active uptake into human hepatocytes [13]: ~15%
Km (OATP1B3 [12]; read-out: Michaelis constant (Km) for OATP1B3, ref Kitamura et al., 2008): 14.2 µM

Compound: cholecystokinin 8 [CCK-8]
Km (OATP1B3 [12]): 3.8 µM

Reference: publication PMC11005446 (European journal of pharmaceutical sciences : official …, 2021)
